Laboratory results as given in publication PMC2728224 (Cancer Chemotherapy and Pharmacology, 2009).

Molecular target: T1, dihydrofolate reductase (DHFR) (Homo sapiens, UniProt P00374)
T1 sequence (P00374 1-187): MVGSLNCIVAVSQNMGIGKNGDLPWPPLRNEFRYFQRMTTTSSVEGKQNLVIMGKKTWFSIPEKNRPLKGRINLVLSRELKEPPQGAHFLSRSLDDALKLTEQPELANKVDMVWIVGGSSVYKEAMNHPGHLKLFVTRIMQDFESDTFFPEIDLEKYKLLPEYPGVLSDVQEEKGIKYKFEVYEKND
Assay: spectrophotometric DHFR activity assay
Type: biochemical

`C#CCC(Cc1cnc2nc(N)nc(N)c2n1)c1ccc(C(=O)NC(CCC(=O)O)C(=O)O)cc1` (racemic) [pralatrexate] gave a Ki of 45 nM.
